In one experiment the test system is SR-BI. Put plainly: Immunoblot of SR-BI expression in tissues of estrogen-treated rats. Format: in vivo, rat. Here is the method:
Tissues of estrogen-treated rats were screened for expression of SR-BI as described above following treatment of rats with 17-α-ethylenyl estradiol (estrogen). The rats were treated for five consecutive days with subcutaneous injections of 5 mg/kg 17-α-ethylenyl estradiol in propylene glycol or with propylene glycol alone (sham-injected).

Another experiment has as its system LDL receptor. Put plainly: Immunoblot of LDL receptor expression in estrogen-treated rats. Conditions: rat, liver. It is filed as in vivo.
For a further experiment, the system named is HDL lipid uptake. The experiment in a line: HDL lipid uptake in vivo after DiI-HDL injection in estrogen-treated rats. Set-up: species or system rat. Conditions: DiI-HDL 800 μg protein/kg into jugular vein, 1 hour. The procedure: For analysis of HDL lipid uptake in vivo, rats were anesthetized with nembutal or metafane before injection of DiI-HDL (800 μg protein/kg) into the left jugular vein. 1 hour later the anesthetized animals were perfused with oxygenated HBSS. Frozen sections (12 μm thick) of sucrose-infiltrated tissues were prepared. Tissue sections were viewed and photographed with a Zeiss photomicroscope III with the appropriate filter package.

Experiment [1] in a line: Plasma total cholesterol and FPLC lipoprotein profile of PROBUCOL-fed mice. Format: in vivo. Conditions: for Reduction of plasma cholesterol levels: 0.5% PROBUCOL chow; for Average plasma total cholesterol (±SEM): 0.5% PROBUCOL-enriched chow. Here is the method: (§1) • Lipoprotein analysis. Plasma, collected from Avertin anesthetized mice, was size fractionated by FPLC, and the total cholesterol in each fraction or in unfractionated plasma was determined as described previously (Rigotti, A., et al. 1997 Proc. Natl. Acad. Sci. USA. 94:12610–12615) or by using a commercial kit (Wako Chemical USA Inc., Richmond, Va., USA). For apoA-I KO mice, 500 μl of pooled plasma was used for FPLC analyses. • Animals. […] Opinl Lipidol. 11:123-131 (2000)), apoA-I KO (Kozarsky, et al., Nature 387414–417 (1997)) (C57BL/6; The Jackson Laboratory, Bar Harbor, Me., USA), and RAG-2 KO (mixed C57BL/6×129×BALB/c background; gift from Jianzhu Chen, Massachusetts Institute of Technology). Double SR-BI/apoA-I KO and SR-BI/RAG-2 KO mice were produced by (a) mating SR-BI KO males with apoA-I KO or RAG-2-KO females, (b) transferring the resulting embryos into Swiss Webster recipients, and (c) intercrossing the double heterozygous offspring.

Experiment [2] has as its system SR-BI KO and wild-type female mice. The experiment in a line: Fertility of female mice mated with wild-type males. Format: in vivo. Here is the method:
as §1
Colonies were maintained by crossing double- KO males with females heterozygous for the SR-BI null mutation and homozygous for the apoA-I or RAG-2 mutation to optimize the low yield of SR-BI homozygotes. It has been possible to obtain only a few homozygous null SR-BI KO mice on an essentially pure C57BL/6 background (backcrossed nine times to pure C57BL/6 mice). Experiments with these (n=3; 4- month matings, no litters) and additional mixed background SR-BI KO mice (n=19) confirmed the extremely low fertility of female SR-BI KO mice. PCR was used for genotyping the various mutant mouse lines. The primers for analyses were as follows: for SR-BI, the primers were as described by Rigotti, et al., Proc. Natl. Acad. Sci. USA 94:12610–12615 (1997); for apoA-I, the following set of four primers were used: 5′ -[…]-3′ (SEQ ID NO:8), 5′-[…]-3′(SEQ ID NO:9), 5′-[…]-3′ (SEQ ID NO:10), and 5′-[…]-3 (SEQ ID NO:11)′ (sequences and protocols originally from the Jackson Laboratories), or primers 5′-[…]-3″ (SEQ ID NO: 12) and 5′-[…]-3′(SEQ ID NO:13); and for RAG-2, the primers were 5′-[…]-3″(SEQ ID NO:14) and 5′-[…]-3″ (SEQ ID NO:15) (kindly provided by Charles Whitehurst, Massachusetts Institute of Technology). All animal studies were approved by the Massachusetts Institute of Technology Committee on Animal Care. To test the fertility of genetically, surgically, or pharmacologically manipulated female mice, virgin females were housed continuously with wild-type males, and numbers of litters and pups were counted during the mating period. […] Otherwise shorter 1- to 2-month mating periods were used when the fertile females produced litters relatively quickly. • Ovary transplantation. Donor SR-BI KO or control wild-type mice (5–6 weeks of age) were sacrificed by cervical dislocation, and the ovaries were removed. Hosts (RAG-2 KO mice), 4–6 weeks of age, were anesthetized with 2.5% Avertin (intraperitoneally), and ovary transfer surgery was performed. In brief, ovaries of the host mice were removed from the surrounding ovarian bursa by cutting the side opposite to the ovarian hilus. Ovaries from the donor mice were then inserted into the ovarian bursa and the bursa closed with Vetbond tissue adhesive (3M Animal Care Products, St. Paul, Minn., USA). In sham ovary transplants (n=5), ovaries of SR-BI KO mice were removed and reinserted into the same mouse (either unilaterally when the contralateral oviduct was cut, n=1, or bilaterally, n=4). […]

Setting [3] is: estrogen-treated versus control rats.
Setting [4] is: rat, 5 mg/kg subcutaneous for five consecutive days, versus sham-injected.
The mark [5] stands for this setting: PROBUCOL-fed SR-BI KO females, n=14, 1- to 2-month mating.

Consider 17-α-ethylenyl estradiol [estrogen], for which, in the experiment on SR-BI (setting [3]), the “SR-BI expressed in the liver” value is “significantly reduced levels” and the “SR-BI in the ovaries” value was “elevated levels”. In the experiment with SR-BI (setting [4]), the “SR-BI expression in adrenal membranes” value is recorded as “upregulation of SR-BI” and the “SR-BI levels in tissues showing trace signal (lung, testes, skin)” value is on record as “no change in SR-BI levels”. Moreover, in the experiment with SR-BI (rat, estrogen-treated, liver), the “SR-BI expression (immunoblot compared with LDL receptor)” value is listed as “dramatically downregulated”. Besides, the LDL receptor expression entry in the experiment with LDL receptor was “tremendous upregulation”. In the experiment with HDL lipid uptake, the “DiI-HDL fluorescence in the ovaries” value is on record as “elevated levels” and the “Uptake of lipid into adrenal tissues” value is “dramatically increased”.

For the compound `CC(C)(Sc1cc(C(C)(C)C)c(O)c(C(C)(C)C)c1)Sc1cc(C(C)(C)C)c(O)c(C(C)(C)C)c1` [PROBUCOL™, 4,4′-(isopropylidenedithio) bis(2,6-di-tert-butylphenol)], the “Reduction of plasma cholesterol levels” value in experiment [1] (SR-BI KO mice) is on record as “approximately 49%”; in experiment [1] (wild-type mice), “approximately 67%”. The “Average plasma total cholesterol (±SEM)” value turned out to be 107.8 ± 6.3 mg/dL in experiment [1] (SR-BI KO mice, n=14) and 33.6 ± 3.4 mg/dL in experiment [1] (wild-type mice, n=9). Also, the “Effect on apparent sizes of the HDLs” value in experiment [1] (wild-type and SR-BI KO mice, FPLC) is “without substantially altering the apparent sizes of the HDLs”. The “Average time from mating to delivery” value in experiment [2] (PROBUCOL-fed SR-BI KO females) was found to be 28.4 days. Besides, the Average litter size in experiment [2] (setting [5]) is 5.7; in experiment [2] (PROBUCOL-fed wild-type females, n=9, 1- to 2-month mating), 5.3. Also, the “Percentage of females producing litters” value in experiment [2] (setting [5]) was found to be 93%. Further, the Restoration of fertility entry in experiment [2] (SR-BI KO females, treatment began 1–3.5 weeks before mating and continued throughout) was “completely restored fertility”.

For the origin of these results see US7208467B2, “Lipid-altering compositions for the treatment of infertility” (priority 2002, dated 2007).
